Reference: publication PMC8689225, “Cardiac ryanodine receptor N-terminal region biosensors identify novel inhibitors via FRET-based high-throughput screening” (The Journal of Biological Chemistry, 2021)

Experiments:
mouse RyR2 NTR = target: T1, mouse RyR2 NTR (Mus musculus, UniProt E9Q401, K30C/K441C, form not given); assay: FLT-FRET dose-response with AC-NTR biosensor; format: binding; conditions: AC-NTR biosensor
T1 sequence (E9Q401 1-547 K30C/K441C): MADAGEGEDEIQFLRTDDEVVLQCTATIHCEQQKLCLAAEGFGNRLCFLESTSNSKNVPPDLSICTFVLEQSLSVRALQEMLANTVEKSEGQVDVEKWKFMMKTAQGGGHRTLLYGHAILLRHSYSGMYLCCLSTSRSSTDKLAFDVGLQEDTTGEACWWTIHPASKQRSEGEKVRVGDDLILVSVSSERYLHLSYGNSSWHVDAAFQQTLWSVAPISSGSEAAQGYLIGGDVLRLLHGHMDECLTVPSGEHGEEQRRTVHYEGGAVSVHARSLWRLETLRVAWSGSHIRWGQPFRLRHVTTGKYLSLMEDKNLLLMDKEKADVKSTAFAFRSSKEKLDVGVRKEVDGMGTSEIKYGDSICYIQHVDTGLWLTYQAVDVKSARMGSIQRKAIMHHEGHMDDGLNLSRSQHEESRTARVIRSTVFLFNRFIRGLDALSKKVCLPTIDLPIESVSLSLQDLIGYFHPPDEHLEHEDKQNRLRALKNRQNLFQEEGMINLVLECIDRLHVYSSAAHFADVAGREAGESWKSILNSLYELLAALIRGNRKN
Source text: The NTR of mouse RyR2 (residues 1–547) was cloned and expressed as previously described ([27]). The DNA construct contains a 6×His tag, a maltose-binding protein (MBP) tag, and a tobacco etch virus (TEV) protease cleavage site. The seven native solvent-exposed cysteine residues were substituted with alanine residues, and two constructs were engineered with Cys substitutions at surface residues R383 and K441 (in the B and C domains, respectively; termed BC) and at K30 and K441 (in the A and C domains, respectively; termed AC) for labeling with spectroscopic probes such as appropriate donor–acceptor fluorophores for FRET (for the purpose of this report, these are considered the WT forms of AC and BC). A variant of the BC construct corresponding to the disease-associated mutant (R420Q) was also prepared. For this site-directed mutagenesis work, we used the QuikChange (Stratagene) and Phusion High-Fidelity PCR (Thermo Fisher Scientific) kits. The WT-NTR, R420Q-NTR, AC- and BC-NTR, AC- and BC-R420Q-NTR protein constructs were expressed in Escherichia coli Rosetta (DE3) pLacI cells at 18 °C and purified with a protocol adapted from previously published work ([26]). An amylose column was first applied after the cells were lysed by ultrasonication. The protein in the elution was then cleaved using TEV protease. The cleaved crude protein went through the second amylose column to separate from the MBP and then followed by a Superdex S-200 size exclusion column in a buffer consisting of 250 mM KCl, 10 mM HEPES, and 14 mM β-mercaptoethanol (pH 7.4). The NTR protein (3 μM) was then incubated in 10 mM HEPES, 250 mM KCl (pH 7.4, 2 h, 21 °C) with the fluorescent probes Alexa Fluor 488 maleimide (AF488, donor; 40 μM) and Alexa Fluor 568 maleimide (AF568, acceptor; 60 μM). The maleimide of the dye reacts with the thiols the Cys residues engineered into NTR, forming a covalently labeled protein. The Alexa dyes were added last to the reaction mixture, from 10 mM DMSO stock solutions. This reaction is not selective to one site (K30C or K441C), and we anticipate that there is a mixed population with K30C or K441C labeled with either AF488 (donor) or AF568 (acceptor). We focused on maximizing the fraction containing donor–acceptor pairs, thus maximizing FRET efficiency and the precision for detecting a change in structure as an indication that a compound interacts with the NTR biosensor. The labeling efficiency was determined by comparing the molar concentration of the bound dye, determined from UV-Vis absorbance, to the protein concentration, determined from gel densitometry. Essentially complete labeling was confirmed from electrospray ionization mass spectrometry. CD spectra of the WT-NTR and mutant R420Q-NTR constructs before and after labeling were recorded using a JASCO J-815 CD spectrometer (JASCO), confirming similar folding (Fig. S1).
The 1536-well assay plates were prepared as described in our previous reports ([21]). The LOPAC (Sigma-Aldrich) collection received in 96-well plates was reformatted into 384-well polypropylene intermediate plates (Greiner Bio-One) using a multichannel liquid handler, BioMek FX (Beckman Coulter), then transferred to 384-well Echo Qualified source plates (Labcyte Inc). Assay plates were prepared as previously described ([20]). On screening days, these plates were thawed out and were loaded with labeled NTR (5 μl, 20 nM final concentration) using a Multidrop Combi automated sample dispenser.
HTS measurements were conducted in a prototype top-read FLT plate reader (FLT-PR, Fluorescence Innovations, Inc), which reads each 1536-well plate in ∼3 min ([63], [64]). AF488 donor fluorescence was excited with a 473 nm microchip laser from Concepts Research Corporation, and the emission signal was split into two channels by a dichroic mirror and acquired with 517 ± 10 nm (channel 1) and 535 ± 7 nm band-pass filters (channel 2) (Semrock). […]

RyR2 = target: T2, RyR2 (Sus scrofa, UniProt A0A5G2R1W3); assay: [3H]ryanodine binding to cardiac SR (CSR) vesicles; format: biochemical, pig
T2 construct: from tissue; host or cells: porcine cardiac left ventricle, crude SR vesicles
Experimental: Crude sarcoplasmic reticulum membrane vesicles were isolated from porcine longissimus dorsi muscle and porcine cardiac left ventricle tissue by differential centrifugation of homogenized tissue, as established previously ([65]). Skeletal heavy SR (HSR) vesicles, which are enriched with RyR1, were isolated by fractionation of crude skeletal SR vesicles using a discontinuous sucrose gradient, in accordance with our published work ([65]). All vesicles were flash-frozen and stored at −80 °C.
In 96-well plates, skeletal SR membranes (HSR, 1 mg/ml) and cardiac SR membranes (CSR, 3 mg/ml) were preincubated with 1% DMSO or hit compound for 30 min at 22 °C in a solution containing 150 mM KCl, 5 mM GSH, 1 μg/ml Aprotinin/Leupeptin, 1 mM EGTA, and 65 μM or 1.02 mM CaCl2 (as determined by MaxChelator to yield 30 nM or 30 μM of free Ca^2+, respectively), 0.1 mg/ml of BSA, and 20 mM K-PIPES (pH 7.0). Nonspecific [^3H]ryanodine binding to SR was assessed by addition of 40 μM nonradioactively labeled ryanodine. Maximal [^3H]ryanodine binding was assessed by addition of 5 mM adenylyl-imidodiphosphate (AMP-PNP), and in the case of CSR, 20 mM caffeine was added. These control samples were each loaded over four wells per plate. Binding of [^3H]ryanodine (7.5 and 10 nM for CSR and HSR, respectively) was determined following a 3 h incubation at 37 °C and filtration through grade GF/B glass microfiber filters (Brandel Inc) using a Brandel Harvester. In 4 ml of Ecolite scintillation cocktail (MP biomedicals), [^3H]ryanodine retained on the filter was counted using a Beckman LS6000 scintillation counter.

T2 sequence (A0A5G2R1W3 20-4900): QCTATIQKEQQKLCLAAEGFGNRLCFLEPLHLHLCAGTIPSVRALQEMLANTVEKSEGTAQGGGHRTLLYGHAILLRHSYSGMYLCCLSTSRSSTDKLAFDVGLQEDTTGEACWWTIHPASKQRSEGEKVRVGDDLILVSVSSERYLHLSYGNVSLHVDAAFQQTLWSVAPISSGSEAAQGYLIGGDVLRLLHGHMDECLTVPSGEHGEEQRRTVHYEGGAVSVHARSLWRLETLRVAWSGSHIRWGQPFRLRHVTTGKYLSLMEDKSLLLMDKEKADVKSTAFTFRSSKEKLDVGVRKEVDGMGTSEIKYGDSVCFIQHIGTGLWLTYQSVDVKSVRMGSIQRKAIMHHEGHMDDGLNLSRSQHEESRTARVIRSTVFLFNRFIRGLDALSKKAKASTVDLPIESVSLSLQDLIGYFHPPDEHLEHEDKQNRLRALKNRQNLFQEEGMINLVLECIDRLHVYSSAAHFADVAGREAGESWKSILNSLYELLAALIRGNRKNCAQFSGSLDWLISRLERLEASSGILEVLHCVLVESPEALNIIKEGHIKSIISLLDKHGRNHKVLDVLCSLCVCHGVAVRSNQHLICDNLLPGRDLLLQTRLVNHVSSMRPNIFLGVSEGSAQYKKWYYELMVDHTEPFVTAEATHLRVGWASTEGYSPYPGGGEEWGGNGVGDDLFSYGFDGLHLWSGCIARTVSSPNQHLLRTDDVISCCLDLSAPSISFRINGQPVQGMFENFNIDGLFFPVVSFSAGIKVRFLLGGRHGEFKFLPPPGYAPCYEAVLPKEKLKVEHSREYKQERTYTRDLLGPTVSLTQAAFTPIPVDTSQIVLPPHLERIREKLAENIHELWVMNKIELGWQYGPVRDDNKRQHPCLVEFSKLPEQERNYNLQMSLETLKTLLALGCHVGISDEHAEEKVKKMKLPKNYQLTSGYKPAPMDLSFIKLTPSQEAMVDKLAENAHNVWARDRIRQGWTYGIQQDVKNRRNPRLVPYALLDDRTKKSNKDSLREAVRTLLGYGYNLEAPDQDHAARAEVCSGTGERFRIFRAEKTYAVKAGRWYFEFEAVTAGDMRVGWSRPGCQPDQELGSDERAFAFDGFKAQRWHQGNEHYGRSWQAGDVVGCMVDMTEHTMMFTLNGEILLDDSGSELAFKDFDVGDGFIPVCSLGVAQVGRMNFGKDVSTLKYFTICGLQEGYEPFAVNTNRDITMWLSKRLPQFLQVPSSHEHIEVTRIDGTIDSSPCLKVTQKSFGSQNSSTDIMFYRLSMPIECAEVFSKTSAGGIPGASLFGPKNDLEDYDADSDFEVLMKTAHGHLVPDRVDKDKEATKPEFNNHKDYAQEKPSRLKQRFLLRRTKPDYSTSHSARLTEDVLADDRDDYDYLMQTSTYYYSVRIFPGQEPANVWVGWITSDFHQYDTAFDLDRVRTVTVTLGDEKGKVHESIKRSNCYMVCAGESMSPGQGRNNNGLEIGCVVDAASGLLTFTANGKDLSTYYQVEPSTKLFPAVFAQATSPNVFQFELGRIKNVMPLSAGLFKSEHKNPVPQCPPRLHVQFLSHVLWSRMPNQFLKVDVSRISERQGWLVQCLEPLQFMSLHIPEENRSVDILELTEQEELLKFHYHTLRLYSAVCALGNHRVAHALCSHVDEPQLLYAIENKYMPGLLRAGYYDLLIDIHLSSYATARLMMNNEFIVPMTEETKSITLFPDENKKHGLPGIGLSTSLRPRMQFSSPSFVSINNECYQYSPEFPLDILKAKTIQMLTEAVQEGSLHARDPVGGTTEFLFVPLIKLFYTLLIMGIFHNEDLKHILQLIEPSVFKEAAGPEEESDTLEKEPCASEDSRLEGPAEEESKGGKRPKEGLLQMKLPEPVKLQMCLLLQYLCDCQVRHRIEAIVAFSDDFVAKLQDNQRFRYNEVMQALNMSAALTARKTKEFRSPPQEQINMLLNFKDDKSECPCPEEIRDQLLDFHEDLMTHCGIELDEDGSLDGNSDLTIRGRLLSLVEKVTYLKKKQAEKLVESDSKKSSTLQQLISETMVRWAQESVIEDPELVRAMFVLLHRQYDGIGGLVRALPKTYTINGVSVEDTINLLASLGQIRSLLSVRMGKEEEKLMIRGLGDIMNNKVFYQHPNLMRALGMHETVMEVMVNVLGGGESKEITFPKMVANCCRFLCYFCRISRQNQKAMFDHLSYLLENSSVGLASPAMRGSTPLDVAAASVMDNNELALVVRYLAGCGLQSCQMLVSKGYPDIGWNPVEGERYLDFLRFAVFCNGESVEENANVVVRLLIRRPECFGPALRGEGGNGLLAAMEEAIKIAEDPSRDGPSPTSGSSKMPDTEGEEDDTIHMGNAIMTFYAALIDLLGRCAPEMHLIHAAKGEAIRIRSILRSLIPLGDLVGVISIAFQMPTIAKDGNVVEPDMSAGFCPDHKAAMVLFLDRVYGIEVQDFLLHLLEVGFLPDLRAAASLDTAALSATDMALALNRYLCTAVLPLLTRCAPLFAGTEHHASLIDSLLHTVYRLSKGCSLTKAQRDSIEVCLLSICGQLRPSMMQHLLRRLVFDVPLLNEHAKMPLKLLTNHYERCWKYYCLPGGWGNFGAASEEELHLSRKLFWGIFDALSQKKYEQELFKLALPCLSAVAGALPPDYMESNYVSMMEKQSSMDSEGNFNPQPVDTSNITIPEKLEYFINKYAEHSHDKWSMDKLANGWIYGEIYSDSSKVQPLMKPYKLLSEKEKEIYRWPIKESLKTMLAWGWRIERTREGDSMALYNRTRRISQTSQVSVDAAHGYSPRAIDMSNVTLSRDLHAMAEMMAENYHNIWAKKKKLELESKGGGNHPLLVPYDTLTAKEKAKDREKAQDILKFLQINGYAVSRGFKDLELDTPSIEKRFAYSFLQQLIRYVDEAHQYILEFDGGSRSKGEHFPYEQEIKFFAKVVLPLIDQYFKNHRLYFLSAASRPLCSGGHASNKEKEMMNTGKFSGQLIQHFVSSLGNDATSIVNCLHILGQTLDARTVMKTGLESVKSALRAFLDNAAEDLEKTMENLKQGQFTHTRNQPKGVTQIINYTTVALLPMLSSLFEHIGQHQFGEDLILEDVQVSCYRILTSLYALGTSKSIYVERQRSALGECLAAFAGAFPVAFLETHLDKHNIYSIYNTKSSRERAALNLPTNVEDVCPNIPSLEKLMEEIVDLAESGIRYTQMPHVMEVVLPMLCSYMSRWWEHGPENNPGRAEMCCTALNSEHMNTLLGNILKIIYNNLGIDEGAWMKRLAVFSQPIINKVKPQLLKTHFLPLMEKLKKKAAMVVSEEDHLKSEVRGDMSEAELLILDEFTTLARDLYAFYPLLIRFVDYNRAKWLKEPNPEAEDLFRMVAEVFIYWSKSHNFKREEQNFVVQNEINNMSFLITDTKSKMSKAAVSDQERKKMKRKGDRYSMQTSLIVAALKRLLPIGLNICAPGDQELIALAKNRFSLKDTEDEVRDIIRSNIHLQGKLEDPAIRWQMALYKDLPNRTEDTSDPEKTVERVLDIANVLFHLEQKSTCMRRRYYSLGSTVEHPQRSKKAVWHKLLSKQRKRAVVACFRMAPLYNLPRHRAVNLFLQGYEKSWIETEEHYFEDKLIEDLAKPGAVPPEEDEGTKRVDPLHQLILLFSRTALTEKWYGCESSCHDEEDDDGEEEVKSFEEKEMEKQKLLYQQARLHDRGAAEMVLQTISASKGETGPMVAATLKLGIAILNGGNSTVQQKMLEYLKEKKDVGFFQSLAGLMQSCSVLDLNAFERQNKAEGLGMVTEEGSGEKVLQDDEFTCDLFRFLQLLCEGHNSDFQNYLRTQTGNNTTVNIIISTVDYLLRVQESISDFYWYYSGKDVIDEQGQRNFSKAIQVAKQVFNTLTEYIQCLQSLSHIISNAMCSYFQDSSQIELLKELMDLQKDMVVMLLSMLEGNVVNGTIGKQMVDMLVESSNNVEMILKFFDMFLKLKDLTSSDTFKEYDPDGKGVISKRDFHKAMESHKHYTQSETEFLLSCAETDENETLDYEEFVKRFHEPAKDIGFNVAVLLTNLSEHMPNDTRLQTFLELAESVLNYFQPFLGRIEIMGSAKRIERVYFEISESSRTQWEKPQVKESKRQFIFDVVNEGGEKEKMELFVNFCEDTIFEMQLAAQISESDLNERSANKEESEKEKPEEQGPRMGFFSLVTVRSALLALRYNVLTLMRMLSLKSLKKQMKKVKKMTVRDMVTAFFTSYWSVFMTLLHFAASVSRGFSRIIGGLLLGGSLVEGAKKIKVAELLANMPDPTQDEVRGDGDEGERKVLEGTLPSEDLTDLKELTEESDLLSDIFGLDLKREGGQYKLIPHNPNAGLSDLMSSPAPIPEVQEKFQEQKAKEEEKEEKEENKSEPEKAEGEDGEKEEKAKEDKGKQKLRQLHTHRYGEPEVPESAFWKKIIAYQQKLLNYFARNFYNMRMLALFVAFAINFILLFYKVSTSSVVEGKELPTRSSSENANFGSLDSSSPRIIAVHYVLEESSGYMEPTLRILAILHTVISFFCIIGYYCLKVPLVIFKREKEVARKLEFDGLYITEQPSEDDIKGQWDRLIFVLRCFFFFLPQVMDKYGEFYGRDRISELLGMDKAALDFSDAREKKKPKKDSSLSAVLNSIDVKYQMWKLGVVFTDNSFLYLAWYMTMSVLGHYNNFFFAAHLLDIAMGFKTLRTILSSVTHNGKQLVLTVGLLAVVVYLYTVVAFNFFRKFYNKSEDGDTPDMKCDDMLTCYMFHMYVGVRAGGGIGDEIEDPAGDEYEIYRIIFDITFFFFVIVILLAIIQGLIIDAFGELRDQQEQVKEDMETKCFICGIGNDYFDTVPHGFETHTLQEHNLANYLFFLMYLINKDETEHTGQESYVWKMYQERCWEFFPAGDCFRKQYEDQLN

Compound: CC(=O)O[C@H]1C[C@@]2(C)[C@@H](C[C@@H](O)[C@H]3[C@@]4(C)CC[C@@H](O)[C@@H](C)[C@@H]4CC[C@@]32C)/C1=C(\CCC=C(C)C)C(=O)O [FA, (2Z)-2-[(3R,4S,5S,8S,9S,10S,11R,13R,14S,16S)-16-acetyloxy-3,11-dihydroxy-4,8,10,14-tetramethyl-2,3,4,5,6,7,9,11,12,13,15,16-dodecahydro-1H-cyclopenta[a]phenanthren-17-ylidene]-6-methylhept-5-enoic acid]
- ΔFLT (mouse RyR2 NTR; 0 to 100 μM, CPNQ/corbadrine decrease FLT, FA/tacrolimus increase FLT): ≈ 0.1 ns
- EC50 (mouse RyR2 NTR; read-out: EC50, FRET dose-response, Hill fit, Table S4): 3.8 µM
- EC50 (RyR2; [Ca2+] 30 nM, Table S4, read-out: EC50, [3H]ryanodine binding, cardiac SR): 1.7 µM
- effect on [3H]ryanodine binding to RyR2 (RyR2; cardiac SR, 30 μM Ca2+): slight activation at high concentrations
